Here are results for 25 molecules from patent US8623857B2, “N-phenyl imidazole carboxamide inhibitors of 3-phosphoinositide-dependent protein kinase-1” (Merck Sharp & Dohme Corp., priority 2010, dated 2014).

For the assay, the target named is T1, recombinant human PDK1 (Homo sapiens, UniProt O15530).
T1 construct: containing amino acids 51-556 of the human PDK1 enzyme; made in house; host or cells: Sf9 insect cells
T1 sequence (O15530 51-556): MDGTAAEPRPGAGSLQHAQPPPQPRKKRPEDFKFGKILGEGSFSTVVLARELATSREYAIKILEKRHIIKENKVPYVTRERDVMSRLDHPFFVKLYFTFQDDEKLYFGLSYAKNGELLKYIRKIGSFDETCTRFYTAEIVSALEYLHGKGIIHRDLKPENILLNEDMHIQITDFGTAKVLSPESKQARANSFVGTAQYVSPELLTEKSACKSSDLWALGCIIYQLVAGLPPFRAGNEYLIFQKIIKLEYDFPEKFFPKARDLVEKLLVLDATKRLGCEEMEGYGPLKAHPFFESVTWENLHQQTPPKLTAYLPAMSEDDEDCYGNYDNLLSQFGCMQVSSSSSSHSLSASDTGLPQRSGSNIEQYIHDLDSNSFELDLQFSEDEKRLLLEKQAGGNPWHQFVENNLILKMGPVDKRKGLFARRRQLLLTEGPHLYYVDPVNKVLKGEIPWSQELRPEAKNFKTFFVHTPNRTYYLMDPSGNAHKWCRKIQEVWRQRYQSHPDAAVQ
Put plainly: PDK1 IMAP fluorescence polarization assay (inhibition of peptide substrate phosphorylation). It is filed as biochemical. The settings on record: Table 6; 10 nM PDK1 enzyme, 100 nM peptide substrate, 100 nM PIFtide, 2.5 uM ATP, 1.5 hours. (In general: Polarisation of emitted light reports the rotation of a fluorescent probe.)

The term IC50 denotes the concentration needed to halve the response being measured.

Turning to `NCC1CCN(c2c(F)cccc2NC(=O)c2nc(-c3cc(NCc4ccc(F)cc4)nc(N)n3)c[nH]2)CC1` [Compound 71, 4-[2-amino-6-[[(4-fluorophenyl)methyl]amino]-4-pyrimidinyl]-N-[2-[4-(aminomethyl)-1-piperidinyl]-3-fluorophenyl]-1H-imidazole-2-carboxamide], the 50% inhibitory concentration (IC50) was 1 to 50 nM. As for `NCC1CCN(c2c(F)cccc2NC(=O)c2nc(-c3cc(N[C@@H](CO)c4ccccc4)nc(N)n3)c[nH]2)CC1` [Compound 72, 4-[2-amino-6-[[2-hydroxy-1(R)-phenylethyl]amino]-4-pyrimidinyl]-N-[2-[4-(aminomethyl)-1-piperidinyl]-3-fluorophenyl]-1H-imidazole-2-carboxamide], the IC50 fell in the range of 1 to 50 nM.

For `NCC1CCN(c2c(F)cccc2NC(=O)c2nc(-c3cc(NCc4ccc(F)cc4)ncn3)c[nH]2)CC1` [Compound 73, N-[2-[4-(aminomethyl)-1-piperidinyl]-3-fluorophenyl]-4-[6-[[(4-fluorophenyl)methyl]amino]-4-pyrimidinyl]-1H-imidazole-2-carboxamide], the half-maximal inhibitory concentration (IC50) fell in the range of 51 to 250 nM. The result for `NCC1CCN(c2c(F)cccc2NC(=O)c2nc(-c3cc(NCc4ccc(F)c(F)c4)ncn3)c[nH]2)CC1` [Compound 74, N-[2-[4-(aminomethyl)-1-piperidinyl]-3-fluorophenyl]-4-[6-[[(3,4-difluorophenyl)methyl]amino]-4-pyrimidinyl]-1H-imidazole-2-carboxamide] reads 51 to 250 nM; that for `NCC1CCN(c2c(F)cccc2NC(=O)c2nc(-c3cc(NCc4ccc(F)c(F)c4)nc(N)n3)c[nH]2)CC1` [Compound 75, 4-[2-amino-6-[[(3,4-difluorophenyl)methyl]amino]-4-pyrimidinyl]-N-[2-[4-(aminomethyl)-1-piperidinyl]-3-fluorophenyl]-1H-imidazole-2-carboxamide], 1 to 50 nM. `COc1ccc(CNc2cc(-c3c[nH]c(C(=O)Nc4cccc(F)c4N4CCC(CN)CC4)n3)nc(N)n2)cc1OC` [Compound 76, 4-[2-amino-6-[[(3,4-dimethoxyphenyl)methyl]amino]-4-pyrimidinyl]-N-[2-[4-(aminomethyl)-1-piperidinyl]-3-fluorophenyl]-1H-imidazole-2-carboxamide]: the IC50 was 251 to 1000 nM. For the molecule `NCC1CCN(c2c(F)cccc2NC(=O)c2nc(-c3cc(N[C@H](CO)c4ccccc4)nc(N)n3)c[nH]2)CC1` [Compound 77, 4-[2-amino-6-[(2-hydroxy-1(S)-phenylethyl)amino]-4-pyrimidinyl]-N-[2-[4-(aminomethyl)-1-piperidinyl]-3-fluorophenyl]-1H-imidazole-2-carboxamide], the IC50 was in the range of 1 to 50 nM. As for `Cc1cc(-c2c[nH]c(C(=O)Nc3cccc(F)c3N3CCC(C(=O)N4CC5CCC(C4)O5)CC3)n2)ccn1` [Compound 78, N-[3-fluoro-2-[4-(8-oxa-3-azabicyclo[3.2.1]oct-3-ylcarbonyl)-1-piperidinyl]phenyl]-4-(2-methyl-4-pyridinyl)-1H-imidazole-2-carboxamide], the concentration for half-maximal inhibition (IC50) lay in the range of 251 to 1000 nM. As for `Cc1cc(-c2c[nH]c(C(=O)Nc3cccc(F)c3N3CCC(C(=O)N4CC5CC4CO5)CC3)n2)ccn1` (stereo not shown) [Compound 79, N-[3-fluoro-2-[4-(2-oxa-5-azabicyclo[2.2.1]hept-5-ylcarbonyl)-1-piperidinyl]phenyl]-4-(2-methyl-4-pyridinyl)-1H-imidazole-2-carboxamide], the IC50 was 1000 to 5000 nM. For `Cc1cc(-c2c[nH]c(C(=O)Nc3cccc(F)c3N3CCC(C(=O)N4CCOCC4CO)CC3)n2)ccn1` (stereo not shown) [Compound 80, N-[3-fluoro-2-[4-[[3-(hydroxymethyl)-4-morpholinyl]carbonyl]-1-piperidinyl]phenyl]-4-(2-methyl-4-pyridinyl)-1H-imidazole-2-carboxamide], the half-inhibitory concentration (IC50) lay within 251 to 1000 nM.

On to `Cc1cc(-c2c[nH]c(C(=O)Nc3cccc(F)c3N3CCC(C(=O)N4CCOCC4CN)CC3)n2)ccn1` (stereo not shown) [Compound 81, N-[2-[4-[[3-(aminomethyl)-4-morpholinyl]carbonyl]-1-piperidinyl]-3-fluorophenyl]-4-(2-methyl-4-pyridinyl)-1H-imidazole-2-carboxamide], for which the concentration for half-maximal inhibition (IC50) fell in the range of 51 to 250 nM. For `Cc1cc(-c2c[nH]c(C(=O)Nc3cccc(F)c3N3CCC(C(N)=O)CC3)n2)ccn1` [Compound 82, 1-[2-fluoro-6-[[[4-(2-methyl-4-pyridinyl)-1H-imidazol-2-yl]carbonyl]amino]phenyl]-4-piperidinecarboxamide], the IC50 is 1000 to 5000 nM. Consider `Cc1cc(-c2c[nH]c(C(=O)Nc3cccc(F)c3N3CCC(C(=O)NCCN)CC3)n2)ccn1` [Compound 83, N-(2-aminoethyl)-1-[2-fluoro-6-[[[4-(2-methyl-4-pyridinyl)-1H-imidazol-2-yl]carbonyl]amino]phenyl]-4-piperidinecarboxamide], for which the half-maximal inhibitory concentration (IC50) is 51 to 250 nM.

On to `Cc1cc(-c2c[nH]c(C(=O)Nc3cccc(F)c3N3CCC(C(=O)NC4CCCCC4N)CC3)n2)ccn1` (stereo not shown) [Compound 84, N-(2-aminocyclohexyl)-1-[2-fluoro-6-[[[4-(2-methyl-4-pyridinyl)-1H-imidazol-2-yl]carbonyl]amino]phenyl]-4-piperidinecarboxamide], for which the half-inhibitory concentration (IC50) lay within 51 to 250 nM. Regarding `CNCCCCNC(=O)C1CCN(c2c(F)cccc2NC(=O)c2nc(-c3ccnc(C)c3)c[nH]2)CC1` [Compound 85, 1-[2-fluoro-6-[[[4-(2-methyl-4-pyridinyl)-1H-imidazol-2-yl]carbonyl]amino]phenyl]-N-[4-(methylamino)butyl]-4-piperidinecarboxamide], the 50% inhibitory concentration (IC50) was 251 to 1000 nM.

For the molecule `CCNCCNC(=O)C1CCN(c2c(F)cccc2NC(=O)c2nc(-c3ccnc(C)c3)c[nH]2)CC1` [Compound 86, N-[2-(ethylamino)ethyl]-1-[2-fluoro-6-[[[4-(2-methyl-4-pyridinyl)-1H-imidazol-2-yl]carbonyl]amino]phenyl]-4-piperidinecarboxamide], the half-maximal inhibitory concentration (IC50) is 251 to 1000 nM.

As for `Cc1cc(-c2c[nH]c(C(=O)Nc3cccc(F)c3N3CCC(C(=O)NCC4(N)CCCC4)CC3)n2)ccn1` [Compound 88, N-[(1-aminocyclopentyl)methyl]-1-[2-fluoro-6-[[[4-(2-methyl-4-pyridinyl)-1H-imidazol-2-yl]carbonyl]amino]phenyl]-4-piperidinecarboxamide], the IC50 lay in the range of 51 to 250 nM. Regarding `Cc1cc(-c2c[nH]c(C(=O)Nc3cccc(F)c3N3CCC(C(=O)N4CCOC(CN)C4)CC3)n2)ccn1` (stereo not shown) [Compound 89, N-[2-[4-[[2-(aminomethyl)-4-morpholinyl]carbonyl]-1-piperidinyl]-3-fluorophenyl]-4-(2-methyl-4-pyridinyl)-1H-imidazole-2-carboxamide], the IC50 was in the range of 51 to 250 nM. For the molecule `Cc1cc(-c2c[nH]c(C(=O)Nc3cccc(F)c3N3CCC(C(=O)N4CCOC(CCO)C4)CC3)n2)ccn1` (stereo not shown) [Compound 90, N-[3-fluoro-2-[4-[[2-(2-hydroxyethyl)-4-morpholinyl]carbonyl]-1-piperidinyl]phenyl]-4-(2-methyl-4-pyridinyl)-1H-imidazole-2-carboxamide], the IC50 lay in the range of 251 to 1000 nM. On to `Cc1cc(-c2c[nH]c(C(=O)Nc3cccc(F)c3N3CCC(C(=O)N4CC5CNC(C5)C4)CC3)n2)ccn1` (stereo not shown) [Compound 91, N-[2-[4-(3,6-diazabicyclo[3.2.1]oct-3-ylcarbonyl)-1-piperidinyl]-3-fluorophenyl]-4-(2-methyl-4-pyridinyl)-1H-imidazole-2-carboxamide], for which the IC50 is 51 to 250 nM. The result for `Cc1cc(-c2c[nH]c(C(=O)Nc3cccc(F)c3N3CCC(C(=O)N4CC[C@@H](F)C4)CC3)n2)ccn1` [Compound 92, N-[3-fluoro-2-[4-[(3(R)-fluoro-1-pyrrolidinyl)carbonyl]-1-piperidinyl]phenyl]-4-(2-methyl-4-pyridinyl)-1H-imidazole-2-carboxamide] reads 1000 to 5000 nM. Consider `Cc1cc(-c2c[nH]c(C(=O)Nc3cccc(F)c3N3CCC(C(=O)N4CCC5(CC4)CNC(=O)C5)CC3)n2)ccn1` [Compound 93, N-[3-fluoro-2-[4-[(3-oxo-2,8-diazaspiro[4.5]dec-8-yl)carbonyl]-1-piperidinyl]phenyl]-4-(2-methyl-4-pyridinyl)-1H-imidazole-2-carboxamide], for which the half-inhibitory concentration (IC50) lay in the range of 251 to 1000 nM. Turning to `Cc1cc(-c2c[nH]c(C(=O)Nc3cccc(F)c3N3CCC(C(=O)N4CCC5(CC4)CNC5)CC3)n2)ccn1` [Compound 94, N-[2-[4-(2,7-diazaspiro[3.5]noN-7-ylcarbonyl)-1-piperidinyl]-3-fluorophenyl]-4-(2-methyl-4-pyridinyl)-1H-imidazole-2-carboxamide], the half-maximal inhibitory concentration (IC50) lay in the range of 51 to 250 nM. `Cc1cc(-c2c[nH]c(C(=O)Nc3cccc(F)c3N3CCC(C(=O)N4CCOC(C(C)N)C4)CC3)n2)ccn1` (stereo not shown) [Compound 95, N-[2-[4-[[2-(1-aminoethyl)-4-morpholinyl]carbonyl]-1-piperidinyl]-3-fluorophenyl]-4-(2-methyl-4-pyridinyl)-1H-imidazole-2-carboxamide]: the half-maximal inhibitory concentration (IC50) was in the range of 251 to 1000 nM. In the case of `Cc1cc(-c2c[nH]c(C(=O)Nc3cccc(F)c3N3CCC(C(=O)N4CCC(O)(c5ccccn5)CC4)CC3)n2)ccn1` [Compound 96, N-[3-fluoro-2-[4-[[4-hydroxy-4-(2-pyridinyl)-1-piperidinyl]carbonyl]-1-piperidinyl]phenyl]-4-(2-methyl-4-pyridinyl)-1H-imidazole-2-carboxamide] it was 1000 to 5000 nM.
